Read-outs that look alike come from different tables or passages of the source.
What was measured:
[1] = Plasma free fraction (fu) and unbound Cmax (Cmax,u); type: in vitro ADME, human; settings: unbound plasma Cmax
Procedure: The prediction of DILI severity was evaluated further using the 3D combined HCI assays using plasma-free fraction. The majority of fu values were obtained from literature, when unavailable in-house prediction was utilised. Unbound plasma Cmax concentrations (Cmax,u) were derived by multiplying total plasma Cmax with the corresponding free fraction (fu) for each compound.

human hepatocytes = settings: cited from earlier work
[2] = system: THLE or HepG2 cells, isolated mitochondria, BSEP; settings: cited from earlier work
[3] = system: HepG2 C3A spheroid, BSEP, Glu/Gal in HepG2 cells, bioactivation; settings: cited from earlier work; for Bayesian Machine Learning DILI prediction, Williams (2019): Bayesian modeling, ref Williams et al. 2019
[4] = read-out: Human plasma Cmax; total plasma Cmax.tot, median of 9 literature references; cited from earlier work
[5] = plasma free fraction; cited from earlier work
hLiMTs [6] = experiment: Combined HCI (HCS) and cellular ATP 3D assay in hLiMTs; settings: for DILI prediction hLiMTs (HCS-MEC): Microtissue model structural based (HCI), combined HCS and ATP, MEC < 25 × Cmax.tot cut-off; for hLiMTs <25x Avg Cmax ATP / hLiMTs <100x Avg Cmaxu ATP: ATP endpoint; for hLiMTs <25x Avg Cmax ATP / hLiMTs <25x Avg Cmax HCS / hLiMTs <25x Avg Cmax All: cut-off <25x Avg Cmax; for hLiMTs <100x Avg Cmaxu ATP / hLiMTs <100x Avg Cmaxu HCS / hLiMTs <100x Avg Cmaxu All: cut-off <100x Avg Cmaxu; for hLiMTs <25x Avg Cmax HCS / hLiMTs <100x Avg Cmaxu HCS: HCS endpoints; for hLiMTs <25x Avg Cmax All: all endpoints (ATP and HCS); for hLiMTs Cmax max All / hLiMTs Cmax min All / hLiMTs <10 uM All / hLiMTs <100x Avg Cmaxu All: all endpoints; for hLiMTs Cmax max All: Cmax max used; for hLiMTs Cmax min All: Cmax min used; for hLiMTs <10 uM All: cut-off <10 uM
HepaRG spheroids = experiment: Combined HCI (HCS) and cellular ATP 3D assay in HepaRG spheroids; settings: for HepaRG <25x Avg Cmax ATP / HepaRG <100x Avg Cmaxu ATP: ATP endpoint; for HepaRG <25x Avg Cmax ATP / HepaRG <25x Avg Cmax HCS / HepaRG <25x Avg Cmax All: cut-off <25x Avg Cmax; for HepaRG <100x Avg Cmaxu ATP / HepaRG <100x Avg Cmaxu HCS / HepaRG <100x Avg Cmaxu All: cut-off <100x Avg Cmaxu; for HepaRG <25x Avg Cmax HCS / HepaRG <100x Avg Cmaxu HCS: HCS endpoints; for HepaRG <25x Avg Cmax All: all endpoints (ATP and HCS); for HepaRG Cmax max All / HepaRG Cmax min All / HepaRG <10 uM All / HepaRG <100x Avg Cmaxu All: all endpoints; for HepaRG Cmax max All: Cmax max used; for HepaRG Cmax min All: Cmax min used; for HepaRG <10 uM All: cut-off <10 uM; for AC50 / minimal effective concentration: Homo sapiens; for HepaRG <25x Avg Cmax ATP / HepaRG <100x Avg Cmaxu ATP / HepaRG <25x Avg Cmax HCS / HepaRG <100x Avg Cmaxu HCS / HepaRG <25x Avg Cmax All / HepaRG Cmax max All / HepaRG Cmax min All / HepaRG <10 uM All / HepaRG <100x Avg Cmaxu All / AC50 / minimal effective concentration: HepaRG; for DILI prediction HepaRG spheroids (HCS-MEC): Microtissue model structural based (HCI), combined HCS and ATP, MEC < 25 × Cmax.tot cut-off
[7] = cited from earlier work
PHH = settings: cited from earlier work
hLiMTs [8] = settings: cited from earlier work
[9] = cited from earlier work; remark: listed apart in the source
[10] = Modeled in vitro assays (cytotoxicity, mitochondrial dysfunction, BSEP), ref Aleo et al. 2019
[11] = In vitro Assay, ref Proctor 2017

Cc1ccc(N(CC2=NCCN2)c2cccc(O)c2)cc1 [phentolamine]
Human plasma Cmax,u [1]: 34 nM | Structural based (HCI) (human hepatocytes; In vitro Assay, ref Xu 2008): -VE | DILI in vitro assay prediction, Xu (2008) (human hepatocytes; Structural based (HCI), human hepatocytes, ref Xu et al. 2008): -VE | Partition Hybrid HRM Score ([2]; In vitro Assay, ref Aleo 2019): -VE | Ro2 Hybrid HRM Score ([2]; In vitro Assay, ref Aleo 2019): -VE | Partition Hybrid HRM Score ≥4, Aleo (2019) [2, 10]: -VE | Partition Hybrid HRM Score ≥8, Aleo (2019) [2, 10]: -VE | Rule of Two hybrid HRM Score ≥3, Aleo (2019) [2, 10]: -VE | Rule of Two hybrid HRM Score ≥8, Aleo (2019) [2, 10]: -VE | Bayesian Machine Learning DILI prediction, Williams (2019) [3]: -VE | Cmax [4]: 75 nM | fu [5]: 0.460 | minimal effective concentration (hLiMTs [6]; Homo sapiens, read-out: HCS endpoint MEC): 87.4 µM | DILI prediction hLiMTs (HCS-MEC) (hLiMTs [6]): -VE | hLiMTs <25x Avg Cmax ATP (hLiMTs [6]): -ve | hLiMTs <100x Avg Cmaxu ATP (hLiMTs [6]): -ve | hLiMTs <25x Avg Cmax HCS (hLiMTs [6]): -ve | hLiMTs <100x Avg Cmaxu HCS (hLiMTs [6]): -ve | hLiMTs <25x Avg Cmax All (hLiMTs [6]): -ve | hLiMTs Cmax max All (hLiMTs [6]): -ve | hLiMTs Cmax min All (hLiMTs [6]): -ve | hLiMTs <10 uM All (hLiMTs [6]): -ve | hLiMTs <100x Avg Cmaxu All (hLiMTs [6]): -ve | HepaRG <25x Avg Cmax ATP (HepaRG spheroids): -ve | HepaRG <100x Avg Cmaxu ATP (HepaRG spheroids): -ve | HepaRG <25x Avg Cmax HCS (HepaRG spheroids): -ve | HepaRG <100x Avg Cmaxu HCS (HepaRG spheroids): -ve | HepaRG <25x Avg Cmax All (HepaRG spheroids): -ve | HepaRG Cmax max All (HepaRG spheroids): -ve | HepaRG Cmax min All (HepaRG spheroids): -ve | HepaRG <10 uM All (HepaRG spheroids): -ve | HepaRG <100x Avg Cmaxu All (HepaRG spheroids): -ve | AC50 (HepaRG spheroids; read-out: ATP endpoint AC50): 35.2 µM | minimal effective concentration (HepaRG spheroids; read-out: ATP endpoint MEC): 29.3 µM | AC50 (HepaRG spheroids; read-out: HCS endpoint AC50): 63 µM | minimal effective concentration (HepaRG spheroids; read-out: HCS endpoint MEC): 18.1 µM | DILI prediction HepaRG spheroids (HCS-MEC) (HepaRG spheroids): -VE

CNC1(C)C2CCC(C2)C1(C)C (stereo not drawn) [mecamylamine]
Human plasma Cmax,u [1]: 85 nM | DILI severity category (Chen et al. [2016]) ([7]; LTKB DILIrank category, ref Chen et al. 2016): No | DILI severity category (Chen 2016) ([7]; human DILI classification, LTKB DILIrank, ref Chen et al. 2016): No | DILI severity category ([7]; human DILI severity, ref Chen et al.): No | DILI +VE (5-8), DILI -VE (-4) ([7]; ref Chen 2016): -VE | DILI severity category ([7]; ref Chen 2016): vNo-DILI-Concern | PHH/100xCmax, Proctor (2017) (PHH; 2D PHH, ATP, IC50 < 100 × Cmax.tot, ref Proctor et al. 2017): -VE | PHH/100uM, Proctor (2017) (PHH; 2D PHH, ATP, IC50 threshold 100 µM, ref Proctor et al. 2017): -VE | PHH ATP <100uM (PHH; [11]): -VE | hLiMTs ATP <100uM (hLiMTs [8]; [11]): -VE | hLiMTs/100xCmax, Proctor (2017) (hLiMTs [8]; hLiMTs, ATP, IC50 < 100 × Cmax.tot, ref Proctor et al. 2017): -VE | hLiMTs/100uM, Proctor (2017) (hLiMTs [8]; hLiMTs, ATP, IC50 threshold 100 µM, ref Proctor et al. 2017): -VE | Bayesian Machine Learning DILI prediction, Williams (2019) [3]: -VE | Bayesian Machine Learning ([3]; In vitro Assay, ref Williams 2019): -VE | Cmax [4]: 142 nM | fu [5]: 0.600 | Assigned DILI category ([9]; Chen et al. 2016 or literature alignment, ref Chen et al. 2016): 1 | In vivo DILI ([9]; […]): -VE | In vivo DILI ([9]; ref Proctor 2017): -VE | In vivo DILI ([9]; ref Williams 2019): -VE | DILI prediction hLiMTs (HCS-MEC) (hLiMTs [6]): -VE | hLiMTs <25x Avg Cmax ATP (hLiMTs [6]): -ve | hLiMTs <100x Avg Cmaxu ATP (hLiMTs [6]): -ve | hLiMTs <25x Avg Cmax HCS (hLiMTs [6]): -ve | hLiMTs <100x Avg Cmaxu HCS (hLiMTs [6]): -ve | hLiMTs <25x Avg Cmax All (hLiMTs [6]): -ve | hLiMTs Cmax max All (hLiMTs [6]): -ve | hLiMTs Cmax min All (hLiMTs [6]): -ve | hLiMTs <10 uM All (hLiMTs [6]): -ve | hLiMTs <100x Avg Cmaxu All (hLiMTs [6]): -ve | HepaRG <25x Avg Cmax ATP (HepaRG spheroids): -ve | HepaRG <100x Avg Cmaxu ATP (HepaRG spheroids): -ve | HepaRG <25x Avg Cmax HCS (HepaRG spheroids): -ve | HepaRG <100x Avg Cmaxu HCS (HepaRG spheroids): -ve | HepaRG <25x Avg Cmax All (HepaRG spheroids): -ve | HepaRG Cmax max All (HepaRG spheroids): -ve | HepaRG Cmax min All (HepaRG spheroids): -ve | HepaRG <10 uM All (HepaRG spheroids): -ve | HepaRG <100x Avg Cmaxu All (HepaRG spheroids): -ve | minimal effective concentration (HepaRG spheroids; read-out: HCS endpoint MEC): 12.2 µM | DILI prediction HepaRG spheroids (HCS-MEC) (HepaRG spheroids): -VE

— PMC7395068, “The evolution of strategies to minimise the risk of human drug-induced liver injury (DILI) in drug discovery and development” (Archives of Toxicology, 2020)
